According to patent US10265307B2, “Thiazolecarboxamides and pyridinecarboxamide compounds useful as Pim kinase inhibitors” (Incyte Corporation, priority 2013, dated 2019):

How the values were obtained:
Assay type in all cases: biochemical
Pim-2 = Pim-2 (Homo sapiens (Human), UniProt Q9P1W9); test: Pim-2 kinase assay; settings: 1 mM ATP; read-out: Pim2 IC50
Pim-3 = Pim-3 (Homo sapiens (Human), UniProt Q86V86); test: Pim-3 kinase assay; settings: 1 mM ATP; read-out: Pim3 IC50
Procedure, shortened: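 AlphaScreen-type assay: […] Pim-3 phosphorylates 0.05 μM biotin-BAD peptide with 1 mM ATP, 1 h at 25 °C, pH 7.5 Tris buffer with MgCl2 and DTT. EDTA stop with phospho-BAD (Ser112) antibody and donor/acceptor beads, 1 h dark incubation before reading.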

Pim-1 = Pim-1 (Homo sapiens (Human), UniProt P11309); test: Pim-1 kinase assay; settings: 1 mM ATP; read-out: Pim1 IC50
Chain of Pim-1 (P11309 whole entry): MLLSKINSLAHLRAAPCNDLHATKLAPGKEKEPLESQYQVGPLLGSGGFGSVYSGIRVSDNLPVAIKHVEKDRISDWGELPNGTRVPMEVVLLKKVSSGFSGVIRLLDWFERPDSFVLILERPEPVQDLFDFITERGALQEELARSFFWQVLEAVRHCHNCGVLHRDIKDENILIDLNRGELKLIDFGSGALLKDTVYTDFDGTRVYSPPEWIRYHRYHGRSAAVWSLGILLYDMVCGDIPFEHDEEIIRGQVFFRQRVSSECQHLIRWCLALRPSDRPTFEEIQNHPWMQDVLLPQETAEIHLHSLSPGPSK
Protocol: Supplementation of the STOP buffer with beads and stopping the reactions were done under reduced light. Prior to the stopping reactions STOP buffer with beads was pre-incubated for 1 h in the dark at room temperature. After stopping the reactions, plates were incubated for 1 h in the dark at room temperature before reading on a PHERAstar FS plate reader (BMG Labtech) under reduced light.

Chain of Pim-2 (Q9P1W9 whole entry): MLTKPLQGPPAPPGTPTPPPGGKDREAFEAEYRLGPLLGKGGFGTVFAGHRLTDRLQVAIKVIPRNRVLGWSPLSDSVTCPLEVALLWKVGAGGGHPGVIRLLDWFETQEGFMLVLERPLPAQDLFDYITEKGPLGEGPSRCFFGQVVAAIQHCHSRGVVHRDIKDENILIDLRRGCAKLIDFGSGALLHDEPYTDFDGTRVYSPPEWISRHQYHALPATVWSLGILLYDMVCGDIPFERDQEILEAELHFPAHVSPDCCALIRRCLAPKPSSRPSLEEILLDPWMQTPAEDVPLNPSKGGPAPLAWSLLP

SMILES	IC50 (Pim-2) [µM]	IC50 (Pim-3) [µM]	IC50 (Pim-1) [µM]
Nc1sc(-c2c(F)cccc2F)nc1C(=O)Nc1cnc2c(c1N1CCC[C@H](N)C1)CCC2 [Example 14, 5-Amino-N-{4-[(3S)-3-aminopiperidin-1-yl]-6,7-dihydro-5H-cyclopenta[b]pyridin-3-yl}-2-(2,6-difluorophenyl)-1,3-thiazole-4-carboxamide]	≤ 0.1	≤ 0.1	≤ 0.1
COC1CCc2c1ncc(NC(=O)c1nc(-c3c(F)cccc3F)sc1N)c2N1CCC[C@H](N)C1 (stereo partly drawn) [Example 17, 5-Amino-N-{4-[(3S)-3-aminopiperidin-1-yl]-7-methoxy-6,7-dihydro-5H-cyclopenta[b]pyridin-3-yl}-2-(2,6-difluorophenyl)-1,3-thiazole-4-carboxamide]	0.1 to 1	≤ 0.1	≤ 0.1
Nc1sc(-c2c(F)cccc2F)nc1C(=O)Nc1cnc2c(c1N1CCC[C@H](N)C1)CCC2=O [Example 20, 5-Amino-N-{4-[(3S)-3-aminopiperidin-1-yl]-7-oxo-6,7-dihydro-5H-cyclopenta[b]pyridin-3-yl}-2-(2,6-difluorophenyl)-1,3-thiazole-4-carboxamide]	≤ 0.1	≤ 0.1	≤ 0.1
N[C@H]1CCCN(c2c(NC(=O)c3ccc(F)c(-c4c(F)cccc4F)n3)cnc3c2CCC3)C1 [Example 21, N-{4-[(3S)-3-Aminopiperidin-1-yl]-6,7-dihydro-5H-cyclopenta[b]pyridin-3-yl}-6-(2,6-difluorophenyl)-5-fluoropyridine-2-carboxamide]	≤ 0.1	≤ 0.1	≤ 0.1
C[C@H]1CN(c2c(NC(=O)c3nc(-c4c(F)cccc4F)sc3N)cnc3c2CCC3)C[C@@H](N)[C@@H]1O [Example 28, 5-Amino-N-{4-[(3R,4R,5S)-3-amino-4-hydroxy-5-methylpiperidin-1-yl]-6,7-dihydro-5H-cyclopenta[b]pyridin-3-yl}-2-(2,6-difluorophenyl)-1,3-thiazole-4-carboxamide]	≤ 0.1	≤ 0.1	≤ 0.1
Nc1sc(-c2c(F)cccc2F)nc1C(=O)Nc1cnc2c(c1N1CCC[C@H](N)C1)CCCN2 [Example 31, 5-Amino-N-{4-[(3S)-3-aminopiperidin-1-yl]-5,6,7,8-tetrahydro-1,8-naphthyridin-3-yl}-2-(2,6-difluorophenyl)-1,3-thiazole-4-carboxamide]	≤ 0.1	≤ 0.1	≤ 0.1
Nc1cc(F)c(-c2c(F)cccc2F)nc1C(=O)Nc1cnc2c(c1N1CCC[C@H](N)C1)CCCN2 [Example 32, 3-Amino-N-{4-[(3S)-3-aminopiperidin-1-yl]-5,6,7,8-tetrahydro-1,8-naphthyridin-3-yl}-6-(2,6-difluorophenyl)-5-fluoropyridine-2-carboxamide]	≤ 0.1	≤ 0.1	≤ 0.1
N[C@H]1CCCN(c2c(NC(=O)c3ccc(F)c(-c4c(F)cccc4F)n3)cnc3c2CCCN3)C1 [Example 33, N-{4-[(3S)-3-Aminopiperidin-1-yl]-5,6,7,8-tetrahydro-1,8-naphthyridin-3-yl}-6-(2,6-difluorophenyl)-5-fluoropyridine-2-carboxamide]	0.1 to 1	≤ 0.1	≤ 0.1
Nc1sc(-c2c(F)cccc2F)nc1C(=O)Nc1cnc2[nH]ncc2c1N1CCC[C@H](N)C1 [Example 34, 5-Amino-N-{4-[(3S)-3-aminopiperidin-1-yl]-1H-pyrazolo[3,4-b]pyridin-5-yl}-2-(2,6-difluorophenyl)-1,3-thiazole-4-carboxamide]	> 2	≤ 0.1	≤ 0.1
N[C@H]1CCCN(c2c(NC(=O)c3csc(-c4c(F)cccc4F)n3)cnc3[nH]ncc23)C1 [Example 35, N-{4-[(3S)-3-aminopiperidin-1-yl]-1H-pyrazolo[3,4-b]pyridin-5-yl}-2-(2,6-difluorophenyl)-1,3-thiazole-4-carboxamide]	> 2	> 0.04	> 0.04
C[C@@H]1C[C@H](N)CN(c2c(NC(=O)c3nc(-c4c(F)cccc4F)sc3N)cnc3c2CCO3)C1 [Example 36, 5-Amino-N-{4-[(3S,5R)-3-amino-5-methylpiperidin-1-yl]-2,3-dihydrofuro[2,3-b]pyridin-5-yl}-2-(2,6-difluorophenyl)-1,3-thiazole-4-carboxamide]	≤ 0.1	≤ 0.1	≤ 0.1
C[C@@H]1C[C@H](N)CN(c2c(NC(=O)c3nc(-c4c(F)cccc4F)c(F)cc3N)cnc3c2CCO3)C1 [Example 38, 3-Amino-N-{4-[(3S,5R)-3-amino-5-methylpiperidin-1-yl]-2,3-dihydrofuro[2,3-b]pyridin-5-yl}-6-(2,6-difluorophenyl)-5-fluoropyridine-2-carboxamide]	≤ 0.1	≤ 0.1	≤ 0.1
C[C@@H]1C[C@H](N)CN(c2c(NC(=O)c3ccc(F)c(-c4c(F)cccc4F)n3)cnc3c2CCO3)C1 [Example 39, N-{4-[(3S,5R)-3-Amino-5-methylpiperidin-1-yl]-2,3-dihydrofuro[2,3-b]pyridin-5-yl}-6-(2,6-difluorophenyl)-5-fluoropyridine-2-carboxamide]	≤ 0.1	≤ 0.1	≤ 0.1
C[C@H]1CN(c2c(NC(=O)c3nc(-c4c(F)cccc4F)sc3N)cnc3c2CCO3)C[C@@H](N)[C@@H]1O [Example 40, 5-Amino-N-{4-[(3R,4R,5S)-3-amino-4-hydroxy-5-methylpiperidin-1-yl]-2,3-dihydrofuro[2,3-b]pyridin-5-yl}-2-(2,6-difluorophenyl)-1,3-thiazole-4-carboxamide]	≤ 0.1	≤ 0.1	≤ 0.1
C[C@H]1CN(c2c(NC(=O)c3ccc(F)c(-c4c(F)cccc4F)n3)cnc3c2CCO3)C[C@@H](N)[C@@H]1O [Example 41, N-{4-[(3R,4R,5S)-3-Amino-4-hydroxy-5-methylpiperidin-1-yl]-2,3-dihydrofuro[2,3-b]pyridin-5-yl}-6-(2,6-difluorophenyl)-5-fluoropyridine-2-carboxamide]	≤ 0.1	≤ 0.1	≤ 0.1
Nc1sc(-c2c(F)cccc2F)nc1C(=O)Nc1cnc2c(c1N1C[C@@H](N)C[C@@H](C(F)(F)F)C1)CCO2 [Example 42, 5-Amino-N-{4-[(3S,5R)-3-amino-5-(trifluoromethyl)piperidin-1-yl]-2,3-dihydrofuro[2,3-b]pyridin-5-yl}-2-(2,6-difluorophenyl)-1,3-thiazole-4-carboxamide]	≤ 0.1	≤ 0.1	≤ 0.1
N[C@H]1C[C@@H](C(F)(F)F)CN(c2c(NC(=O)c3ccc(F)c(-c4c(F)cccc4F)n3)cnc3c2CCO3)C1 [Example 43, N-{4-[(3S,5R)-3-amino-5-(trifluoromethyl)piperidin-1-yl]-2,3-dihydrofuro[2,3-b]pyridin-5-yl}-6-(2,6-difluorophenyl)-5-fluoropyridine-2-carboxamide]	≤ 0.1	≤ 0.1	≤ 0.1
N[C@H]1CCCN(c2c(NC(=O)c3ccc(F)c(-c4c(F)cccc4F)n3)cnc3c2CCC3=O)C1 [Example 50, N-{4-[(3S)-3-Aminopiperidin-1-yl]-7-oxo-6,7-dihydro-5H-cyclopenta[b]pyridin-3-yl}-6-(2,6-difluorophenyl)-5-fluoropyridine-2-carboxamide]	0.1 to 1	≤ 0.1	≤ 0.1
C[C@H]1CN(c2c(NC(=O)c3ccc(F)c(-c4c(F)cccc4F)n3)cnc3c2CCC3)C[C@@H](N)[C@@H]1O [Example 52, N-{4-[(3R,4R,5S)-3-Amino-4-hydroxy-5-methylpiperidin-1-yl]-6,7-dihydro-5H-cyclopenta[b]pyridin-3-yl}-6-(2,6-difluorophenyl)-5-fluoropyridine-2-carboxamide]	≤ 0.1	≤ 0.1	≤ 0.1
CC1(N)CCCN(c2c(NC(=O)c3nc(-c4c(F)cccc4F)sc3N)cnc3c2CCC3)C1 (stereo not drawn) [Example 57, 5-Amino-N-[4-(3-amino-3-methylpiperidin-1-yl)-6,7-dihydro-5H-cyclopenta[b]pyridin-3-yl]-2-(2,6-difluorophenyl)-1,3-thiazole-4-carboxamide]	0.1 to 1	≤ 0.1	≤ 0.1
C[C@H]1CN(c2c(NC(=O)c3ccc(F)c(-c4c(F)cc(C(C)(C)O)cc4F)n3)cnc3c2CCO3)C[C@@H](N)[C@@H]1O [Example 65, N-{4-[(3R,4R,5S)-3-Amino-4-hydroxy-5-methylpiperidin-1-yl]-2,3-dihydrofuro[2,3-b]pyridin-5-yl}-6-[2,6-difluoro-4-(1-hydroxy-1-methylethyl)phenyl]-5-fluoropyridine-2-carboxamide]	≤ 0.1	≤ 0.1	≤ 0.1
C[C@H]1CN(c2c(NC(=O)c3ccc(F)c(-c4c(F)cc(OC5CCCOC5)cc4F)n3)cnc3c2CCO3)C[C@@H](N)[C@@H]1O (stereo partly drawn) [Example 69, N-{4-[(3R,4R,5S)-3-amino-4-hydroxy-5-methylpiperidin-1-yl]-2,3-dihydrofuro[2,3-b]pyridin-5-yl}-6-[2,6-difluoro-4-(tetrahydro-2H-pyran-3-yloxy)phenyl]-5-fluoropyridine-2-carboxamide]	≤ 0.1	≤ 0.1	≤ 0.1
C[C@H]1CN(c2c(NC(=O)c3nc(-c4c(F)cccc4F)c(F)cc3N)cnc3c2CCO3)C[C@@H](N)[C@@H]1O [Example 71, 3-Amino-N-{4-[(3R,4R,5S)-3-amino-4-hydroxy-5-methylpiperidin-1-yl]-2,3-dihydrofuro[2,3-b]pyridin-5-yl}-6-(2,6-difluorophenyl)-5-fluoropyridine-2-carboxamide]	≤ 0.1	≤ 0.1	≤ 0.1
